According to patent US11246936B2, “Compositions and methods using rebaudioside X to provide sweetness enhancement” (The Coca-Cola Company, priority 2013, dated 2022):

Tests used:
[1] = tested on: panelists; test: Taste evaluation of sweetness against sucrose reference beverages (water and citric acid buffer); assay type: in vivo, human
Method: Solutions were made by dissolving all ingredients in treated water. For citric acid buffer, citric acid and potassium citrate were added in a sufficient amount to bring the pH to 3.2. Finished products were filled in 300 ml-glass bottles and stored in the refrigerator. The Rebaudioside X used was 95% pure and obtained from Pure Circle. Beverages were kept in the refrigerator overnight and tasted cold the following day. Two panelists evaluated the beverages. Bottles were removed from the refrigerator and about 50 ml of the beverage was poured in 4 oz-plastic cups. Taste test were conducted in two sessions for each type of solution: water and citric acid buffer. In the first session, the sweetness level of the beverages containing 20 ppm and 30 ppm rebaudioside X were determined against the 0.5%, 1%, and 1.5% sucrose beverages. In the second session, the sweetness level of the beverages containing 7% sucrose and either 20 ppm or 30 ppm rebaudioside X were determined against the 7%, 8%, 9%, and 10% sucrose beverages. Panelists were given mineral water for rinsing before tasting and between tasting different samples. Unsalted crackers were also given to panelists to eat followed by rinsing their mouth with mineral water before tasting the next sample.

[2] = tested on: panelists; test: Taste evaluation of lemon-lime carbonated soft drinks against HFCS-55 controls; assay type: in vivo, human
Method: Lemon-lime carbonated soft drinks (CSD) were made by dissolving all ingredients in an amount of water sufficient to make a syrup from which finished beverages were made by adding 5.5 parts carbonated water to 1 part syrup (beverage carbonation target of 3.7 volumes of CO2). Products were prepared with the ingredients provided in Table 8: The beverages were aged for seven days at room temperature and then cooled at 4° C. before tasting. Four panelists evaluated the beverages. Bottles were removed from the refrigerator and about 20 ml of beverage poured in 2 oz-plastic cups. Mineral water was given for palate rinsing before tasting and between tasting different samples.

[3] = tested on: human sense of taste; test: Sweetness recognition threshold; assay type: in vivo
Source text: The term “sweetness recognition threshold,” as generally used herein, is the lowest known concentration of a sweet compound that is perceivable by the human sense of taste. As such, rebaudioside X enhances or potentiates the sweet taste of sweeteners without providing any noticeable sweet taste by itself when present below its sweetness recognition threshold concentration. However, rebaudioside X may provide a detectable sweet taste at concentrations above its sweetness recognition threshold. The sweetness recognition threshold of rebaudioside X is about 20 to about 30 ppm.
The term “sucrose equivalence,” as used herein, refers to the sweetness of a composition containing at least one […] sweetener against a sucrose reference. Typically, taste panelists are trained to detect sweetness of reference sucrose solutions containing between 1-15% sucrose (w/v). Other non-sucrose sweeteners are then tasted at a series of dilutions to determine the concentration of the non-sucrose, i.e. rebaudioside X, sweetener that is as sweet (i.e. isosweet) to a given percent sucrose reference.

With C=C1C[C@@]23CC[C@H]4[C@@](C)(CCC[C@@]4(C)C(=O)O[C@@H]4O[C@H](CO)[C@@H](O)[C@H](O[C@@H]5O[C@H](CO)[C@@H](O)[C@H](O)[C@H]5O)[C@H]4O[C@@H]4O[C@H](CO)[C@@H](O)[C@H](O)[C@H]4O)[C@@H]2CC[C@]1(O[C@@H]1O[C@H](CO)[C@@H](O)[C@H](O[C@@H]2O[C@H](CO)[C@@H](O)[C@H](O)[C@H]2O)[C@H]1O[C@@H]1O[C@H](CO)[C@@H](O)[C@H](O)[C@H]1O)C3 [rebaudioside X, 13-[(2-O-β-D-glucopyranosyl-3-O-β-D-glucopyranosyl-β-D-glucopyranosyl)oxy] ent kaur-16-en-19-oic acid-[(2-O-β-D-glucopyranosyl-3-O-β-D-glucopyranosyl-β-D-glucopyranosyl) ester]] the “overall sweetness similar to sucrose beverage” value ([1]; 7% sucrose and 20 ppm rebaudioside X in water or citric acid buffer, between the 9% and 10% sucrose beverage (average)) was roughly 9.5 % sucrose, the “overall sweetness similar to sucrose beverage” value ([1]; 7% sucrose and 30 ppm rebaudioside X in either water or citric acid buffer) was roughly 10 % sucrose and the sweetness enhancement ([1]; 20 and 30 ppm rebaudioside X added to a beverage containing 7% sucrose) was “about 1.5%”. For the same compound, the “increase in isosweetness provided by rebaudioside X” value ([1]; 20 ppm rebaudioside X in 7.0% (w/v) sucrose beverage) was 2.5 % (w/v), the “overall sweetness similar to sucrose beverage” value ([1]; 20 ppm rebaudioside X in either water or citric acid buffer (pH 3.2), two panelists, tasted cold) was roughly 1 % sucrose and the “overall sweetness similar to sucrose beverage” value ([1]; 30 ppm rebaudioside X in either water or citric acid buffer (pH 3.2), two panelists, tasted cold) was roughly 1.5 % sucrose. The isosweet sucrose solution ([1]; beverage containing 7.0% (w/v) sucrose and 20 ppm rebaudioside X) was 9.5 % (w/v), the isosweet sucrose solution ([1]; solution containing 20 ppm rebaudioside X, no other sweetener) was 1.0 % (w/v) and the “overall sweetness similar to HFCS-55 beverage” value ([2]; 8% HFCS-55 and 30 ppm rebaudioside X in lemon lime CSD, four panelists, 10% HFCS-55 same sweetness as 10% sucrose) was “about 10 % HFCS-55”. The sweetness enhancement ([2]; 30 ppm rebaudioside X added to a beverage containing 8% HFCS-55 (same sweetness as 8% sucrose)) was “about 2.0%”, the “sucrose equivalence provided at the sweetness recognition threshold” value ([3]; at about 20-30 ppm rebaudioside X) was 1.0-1.5% and the sweetness recognition threshold ([3]; lowest concentration perceivable by the human sense of taste) was 20-30 ppm.
